In patent US12662481B2, “Substituted 2-morpholinopyridine derivatives as ATR kinase inhibitors” (Repare Therapeutics Inc., priority 2019, dated 2026) one finds IC50 data, which are given here for eight compounds.

For experiment [1], the target named is ATR/ATRIP (Homo sapiens, UniProt Q13535). The experiment in a line: ATR/ATRIP enzymatic assay (AlphaScreen, phosphorylation of p53).
Method: Detection of ATR kinase activity utilized the AlphaScreen system to measure the phosphorylation of the substrate protein p53. […] Plates were incubated at room temperature in the dark for 4 hours and read on a BMG Polarstar using AlphaScreen dedicated filters. […] IC50 values were determined using a 4-parameter fit algorithm.
The test system of experiment [2] is ATR (CHK1 phosphorylation at Ser345 in HeLa S3 cells). The experiment in a line: ATR assay in HeLa S3 cells (CHK1 p-Ser345 AlphaScreen SureFire, gemcitabine). The format is cell-based. The following applies: HeLa S3 whole cell assay, 3.5 to 4 hours. How it is done:
Media was then replaced by 20 μL per well Opti-MEM no phenol red and 5 μL of serial diluted compounds were added to the assay plate for a final DMSO concentration of 0.5%. […] The plate was incubated at 37° C., 5% CO2 for 3.5 to 4 hours.

The mark [3] stands for this setting: Homo sapiens, gemcitabine 1.5 μM.

Like-named read-outs stand apart in the source and are kept apart here.

The term IC50 denotes the concentration that gives 50% inhibition.

Sequence of ATR/ATRIP (Q13535 whole entry): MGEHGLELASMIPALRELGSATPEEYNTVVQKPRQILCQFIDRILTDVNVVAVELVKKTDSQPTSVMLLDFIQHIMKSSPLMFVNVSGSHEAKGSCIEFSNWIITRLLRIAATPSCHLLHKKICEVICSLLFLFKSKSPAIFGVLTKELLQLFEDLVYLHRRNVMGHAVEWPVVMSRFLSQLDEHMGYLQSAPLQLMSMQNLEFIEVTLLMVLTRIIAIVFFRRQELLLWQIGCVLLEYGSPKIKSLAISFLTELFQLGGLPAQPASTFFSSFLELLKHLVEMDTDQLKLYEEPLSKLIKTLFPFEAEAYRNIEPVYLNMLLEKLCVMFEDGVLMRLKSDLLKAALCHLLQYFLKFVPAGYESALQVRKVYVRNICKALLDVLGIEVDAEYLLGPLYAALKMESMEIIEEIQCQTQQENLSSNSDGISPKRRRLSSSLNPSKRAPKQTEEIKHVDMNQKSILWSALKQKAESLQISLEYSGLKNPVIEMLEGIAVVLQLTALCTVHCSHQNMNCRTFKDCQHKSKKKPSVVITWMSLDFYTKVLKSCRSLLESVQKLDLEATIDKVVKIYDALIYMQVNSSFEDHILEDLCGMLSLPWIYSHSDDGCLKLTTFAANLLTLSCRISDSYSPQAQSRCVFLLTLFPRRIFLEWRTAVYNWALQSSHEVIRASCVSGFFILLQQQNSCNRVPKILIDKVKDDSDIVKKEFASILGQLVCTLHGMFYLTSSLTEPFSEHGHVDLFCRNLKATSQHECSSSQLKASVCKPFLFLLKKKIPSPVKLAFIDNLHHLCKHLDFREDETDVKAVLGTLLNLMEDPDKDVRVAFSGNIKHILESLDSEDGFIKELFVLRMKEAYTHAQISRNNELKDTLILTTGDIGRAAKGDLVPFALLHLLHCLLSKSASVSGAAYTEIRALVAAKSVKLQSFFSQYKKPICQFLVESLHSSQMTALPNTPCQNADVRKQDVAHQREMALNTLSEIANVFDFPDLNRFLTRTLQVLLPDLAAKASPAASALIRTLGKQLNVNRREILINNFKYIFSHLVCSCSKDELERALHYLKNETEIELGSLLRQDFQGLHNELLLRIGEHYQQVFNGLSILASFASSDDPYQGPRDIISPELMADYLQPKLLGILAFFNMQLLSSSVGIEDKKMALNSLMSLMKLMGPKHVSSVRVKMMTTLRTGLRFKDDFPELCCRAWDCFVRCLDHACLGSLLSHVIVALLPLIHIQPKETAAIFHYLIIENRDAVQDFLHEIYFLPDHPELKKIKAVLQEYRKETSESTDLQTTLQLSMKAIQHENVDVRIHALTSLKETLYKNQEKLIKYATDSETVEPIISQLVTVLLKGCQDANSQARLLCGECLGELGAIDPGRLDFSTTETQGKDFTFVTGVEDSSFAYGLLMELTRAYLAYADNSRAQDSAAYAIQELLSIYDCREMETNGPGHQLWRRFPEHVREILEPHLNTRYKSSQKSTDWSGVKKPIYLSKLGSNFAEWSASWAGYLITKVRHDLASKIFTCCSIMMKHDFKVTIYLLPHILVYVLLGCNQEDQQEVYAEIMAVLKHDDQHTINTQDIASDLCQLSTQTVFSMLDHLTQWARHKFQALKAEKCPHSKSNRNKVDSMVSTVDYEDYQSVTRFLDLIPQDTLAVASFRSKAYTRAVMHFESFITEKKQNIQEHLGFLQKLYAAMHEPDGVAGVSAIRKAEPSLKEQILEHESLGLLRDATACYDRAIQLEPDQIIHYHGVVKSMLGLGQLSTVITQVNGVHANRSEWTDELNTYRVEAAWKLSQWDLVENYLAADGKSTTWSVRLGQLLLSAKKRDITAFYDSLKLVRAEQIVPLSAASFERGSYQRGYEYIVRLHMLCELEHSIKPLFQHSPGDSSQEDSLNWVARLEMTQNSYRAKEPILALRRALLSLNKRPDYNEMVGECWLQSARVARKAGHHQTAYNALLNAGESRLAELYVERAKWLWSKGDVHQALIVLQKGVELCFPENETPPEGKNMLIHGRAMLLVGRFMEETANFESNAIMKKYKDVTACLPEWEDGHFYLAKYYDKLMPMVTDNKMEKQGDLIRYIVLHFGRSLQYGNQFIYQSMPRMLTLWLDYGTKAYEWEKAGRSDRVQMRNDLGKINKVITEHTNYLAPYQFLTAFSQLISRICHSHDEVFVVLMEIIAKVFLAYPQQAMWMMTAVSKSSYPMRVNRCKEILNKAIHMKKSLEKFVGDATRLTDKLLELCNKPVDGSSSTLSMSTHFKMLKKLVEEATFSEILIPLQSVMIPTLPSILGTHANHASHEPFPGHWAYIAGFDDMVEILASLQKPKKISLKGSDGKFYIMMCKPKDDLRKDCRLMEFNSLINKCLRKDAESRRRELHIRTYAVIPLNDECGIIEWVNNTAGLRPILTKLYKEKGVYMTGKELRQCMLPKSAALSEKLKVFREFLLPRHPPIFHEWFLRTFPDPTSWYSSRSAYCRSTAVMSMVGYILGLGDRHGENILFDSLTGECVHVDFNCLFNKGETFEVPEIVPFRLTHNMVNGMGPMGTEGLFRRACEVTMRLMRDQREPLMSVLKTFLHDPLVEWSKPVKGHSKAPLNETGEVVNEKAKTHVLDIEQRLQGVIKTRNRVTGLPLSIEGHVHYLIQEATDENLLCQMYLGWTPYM
Sequence of ATR/ATRIP (Q8WXE1 whole entry partner): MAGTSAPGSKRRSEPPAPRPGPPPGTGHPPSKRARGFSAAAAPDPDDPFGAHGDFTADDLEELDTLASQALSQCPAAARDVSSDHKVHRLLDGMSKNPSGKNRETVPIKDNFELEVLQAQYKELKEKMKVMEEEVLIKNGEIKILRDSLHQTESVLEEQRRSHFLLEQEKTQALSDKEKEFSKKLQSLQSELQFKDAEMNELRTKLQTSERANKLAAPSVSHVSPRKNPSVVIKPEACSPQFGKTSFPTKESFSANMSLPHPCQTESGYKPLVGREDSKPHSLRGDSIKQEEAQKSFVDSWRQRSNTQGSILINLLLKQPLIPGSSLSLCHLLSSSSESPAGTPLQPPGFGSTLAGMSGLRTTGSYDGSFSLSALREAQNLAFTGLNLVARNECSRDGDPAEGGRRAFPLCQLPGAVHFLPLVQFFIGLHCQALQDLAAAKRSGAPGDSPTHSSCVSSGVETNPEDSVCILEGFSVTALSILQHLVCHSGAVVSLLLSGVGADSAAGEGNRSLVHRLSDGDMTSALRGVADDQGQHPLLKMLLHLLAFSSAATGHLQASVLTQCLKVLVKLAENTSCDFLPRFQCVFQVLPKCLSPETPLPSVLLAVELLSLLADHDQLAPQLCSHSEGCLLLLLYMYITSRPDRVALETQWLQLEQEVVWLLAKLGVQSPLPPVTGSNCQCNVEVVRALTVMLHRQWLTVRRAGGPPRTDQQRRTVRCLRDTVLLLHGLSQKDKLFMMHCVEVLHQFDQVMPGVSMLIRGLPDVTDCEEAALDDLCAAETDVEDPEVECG

Regarding `Cc1ccncc1-c1cc(N2CCOC[C@H]2C)nc2c1ccn2-c1cc[nH]n1` [Compound 9], the midpoint of inhibition in experiment [1], the IC50, lay at 371 nM.

For the compound `C[C@@H]1COCCN1c1cc(-c2nncs2)c2cnn(-c3cc[nH]n3)c2n1` [Compound 33], in experiment [1], the IC50 was 154 nM.

With `CC(C#N)c1cc(N2CCOC[C@H]2C)nc2c1cnn2-c1cc[nH]n1` (some centres unmarked) [Compound 47], in experiment [1] (read-out: ATR IC50, recombinant ATR/ATRIP 0.63 nM, 25 nM GST-p53, 3 μM ATP, 1 hour room temperature), the IC50 stood at 12 nM.

On to `C[C@@H]1COCCN1c1cc([C@]2(O)C[C@H]3CC[C@@H](C2)O3)c2cnn(-c3cc[nH]n3)c2n1` [Compound 121], for which, in experiment [2] (setting [3]), the IC50 worked out at 0.9 nM.

In experiment [2] (setting [3]), `C[C@@H]1COCCN1c1cc(-c2ccccc2S(N)(=O)=O)c2cnn(-c3cc[nH]n3)c2n1` [Compound 126, (R)-2-(6-(3-methylmorpholino)-1-(1H-pyrazol-3-yl)-1H-pyrazolo[3,4-b]pyridin-4-yl)benzenesulfonamide] registered an IC50 of 17 nM.

Regarding `C[C@@H]1COCCN1c1cc(N2CCOCC2=O)c2cnn(-c3cc[nH]n3)c2n1` [Compound 134], the IC50 in experiment [2] (setting [3]) amounted to 41 nM.

`COC1(c2cc(N3CCOC[C@H]3C)nc3c2cnn3-c2cc[nH]n2)CCSCC1` [Compound 147]: in experiment [2] (setting [3]), the IC50 was 0.8 nM.

Compound `C[C@@H]1COCCN1c1cc(-c2cccnc2C(F)(F)F)c2c(=O)[nH]n(-c3ccn[nH]3)c2n1` [Compound 151] registered an IC50 in experiment [2] (gemcitabine […]) of 9.1 nM.
